In patent US20250326794A1, “ANTI-CANCER LEUCINE-RICH PEPTIDES AND USES THEREOF” (KING'S COLLEGE LONDON, priority 2019, published 2025):

Key:
[1] = test system: U2OS (human bone osteosarcoma); details: 72 h
Outline: (§1)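 MTT viability after 72 h exposure to 0–100 μM compound (final DMSO 0.5% or 0%), 5×10^3 cells/well; HMLER lines and MCF-10A in MEGM, U2OS in DMEM with 10% FBS. A550 normalized to matching vehicle controls; IC50 interpolated from dose–response curves.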

[2] = Tryptophan fluorescent binding assay, POPC vesicles; details: 50 μM peptide, PBS pH 7.4, lipid per peptide
Outline: (§2)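 Binding followed by tryptophan emission (300-450 nm, 280 nm excitation, 3 scans averaged) after 60 min incubation of 50 μM peptide with 0-5000 μM extruded 100 nm POPC or 3:1 POPC/POPG vesicles in PBS pH 7.4. Value: lipid-to-peptide ratio at half-maximal binding.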

[3] = test system: HEK293T (human embryonic kidney cell); experiment: cells; details: 72 h
[4] = test system: HMLER-shEcad (human breast cancer stem cell); experiment: cells; details: 72 h
Outline: as §1

[5] = test system: HMLER (human breast cancer bulk cell); experiment: cells; details: 72 h
Outline: as §1

[6] = Tryptophan fluorescent binding assay, 3POPC/1POPG vesicles; details: 50 μM peptide, PBS pH 7.4, lipid per peptide
Outline: as §2

[7] = ANTS/DPX liposome leakage assay, POPC vesicles; format: biochemical; details: 0.5 mM vesicles; for Peptide Concentration-induced 50% ANTS/DPX leakage at pH 4.8, POPC Vesicle: pH 4.8, lipid per peptide; for Peptide Concentration-induced 50% ANTS/DPX leakage at pH 7.4, POPC Vesicle: pH 7.4, lipid per peptide
Outline: (§3)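 Peptide titrations (0–20 μM) were incubated 3 h with 0.5 mM ANTS/DPX-loaded 100 nm vesicles, either POPC alone or 3:1 POPC/POPG, at pH 7.4 or pH 4.8 in PBS. ANTS fluorescence (350/510 nm) normalized to Triton-lysed vesicles; 50%-leakage values given as lipid:peptide ratio.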

[8] = ANTS/DPX liposome leakage assay, 3POPC/1POPG vesicles; format: biochemical; details: 0.5 mM vesicles; for Peptide Concentration-induced 50% ANTS/DPX leakage at pH 4.8, 3POPC/1POPG Vesicle: pH 4.8, lipid per peptide; for Peptide Concentration-induced 50% ANTS/DPX leakage at pH 7.4, 3POPC/1POPG Vesicle: pH 7.4, lipid per peptide
Outline: as §3

SMILES	IC50 [1]	Lipid Concentration-induced 50% Peptide Binding, POPC Vesicle [2]	IC50 [3]	IC50 [4]	IC50 [5]	Lipid Concentration-induced 50% Peptide Binding, 3POPC/1POPG Vesicle [6]	Peptide Concentration-induced 50% ANTS/DPX leakage at pH 4.8, POPC Vesicle [7]	Peptide Concentration-induced 50% ANTS/DPX leakage at pH 7.4, POPC Vesicle [7]	Peptide Concentration-induced 50% ANTS/DPX leakage at pH 4.8, 3POPC/1POPG Vesicle [8]	Peptide Concentration-induced 50% ANTS/DPX leakage at pH 7.4, 3POPC/1POPG Vesicle [8]
CC(C)C[C@H](NC(=O)CN)C(=O)N[C@@H](CC(C)C)C(=O)N[C@@H](Cc1c[nH]cn1)C(=O)N[C@@H](CC(C)C)C(=O)N[C@@H](CC(C)C)C(=O)N[C@@H](Cc1c[nH]cn1)C(=O)N[C@@H](CC(C)C)C(=O)N[C@@H](CC(C)C)C(=O)N[C@@H](CC(C)C)C(=O)N[C@@H](Cc1c[nH]cn1)C(=O)N[C@@H](C)C(=O)N[C@@H](C)C(=O)NCC(=O)N[C@@H](Cc1c[nH]c2ccccc12)C(N)=O [HHH]	185 ± 7 µM	0.46 L/P	30.6 ± 4.81 µM	9500 ± 990 nM	21.1 ± 6.93 µM	0.82 L/P	173 L/P	1133 L/P	50 L/P	469 L/P
CC(C)C[C@H](NC(=O)CN)C(=O)N[C@@H](CC(C)C)C(=O)N[C@@H](Cc1c[nH]cn1)C(=O)N[C@@H](CC(C)C)C(=O)N[C@@H](CC(C)C)C(=O)N[C@@H](Cc1c[nH]cn1)C(=O)N[C@@H](CC(C)C)C(=O)N[C@@H](CC(C)C)C(=O)N[C@@H](CC(C)C)C(=O)N[C@@H](CCCCN)C(=O)N[C@@H](C)C(=O)N[C@@H](C)C(=O)NCC(=O)N[C@@H](Cc1c[nH]c2ccccc12)C(N)=O [HHK]	12.7 ± 1.91 µM	0.68 L/P	5.25 ± 1.48 µM	1750 ± 210 nM	3.15 ± 0.07 µM	0.20 L/P	149 L/P	1133 L/P	111 L/P	160 L/P
CC(C)C[C@H](NC(=O)CN)C(=O)N[C@@H](CC(C)C)C(=O)N[C@@H](Cc1c[nH]cn1)C(=O)N[C@@H](CC(C)C)C(=O)N[C@@H](CC(C)C)C(=O)N[C@@H](CCCCN)C(=O)N[C@@H](CC(C)C)C(=O)N[C@@H](CC(C)C)C(=O)N[C@@H](CC(C)C)C(=O)N[C@@H](CCC(=O)O)C(=O)N[C@@H](C)C(=O)N[C@@H](C)C(=O)NCC(=O)N[C@@H](Cc1c[nH]c2ccccc12)C(N)=O [HKE]	16 ± 0.78 µM	0.75 L/P	5.15 ± 0.64 µM	1900 ± 420 nM	2.7 ± 0.28 µM	0.25 L/P	173 L/P	692 L/P	94 L/P	365 L/P
CC(C)C[C@H](NC(=O)CN)C(=O)N[C@@H](CC(C)C)C(=O)N[C@@H](Cc1c[nH]cn1)C(=O)N[C@@H](CC(C)C)C(=O)N[C@@H](CC(C)C)C(=O)N[C@@H](CCCCN)C(=O)N[C@@H](CC(C)C)C(=O)N[C@@H](CC(C)C)C(=O)N[C@@H](CC(C)C)C(=O)N[C@@H](Cc1c[nH]cn1)C(=O)N[C@@H](C)C(=O)N[C@@H](C)C(=O)NCC(=O)N[C@@H](Cc1c[nH]c2ccccc12)C(N)=O [HKH]	18.9 ± 1.24 µM	0.18 L/P	5.7 ± 0.99 µM	3100 ± 570 nM	3.45 ± 0.21 µM	0.38 L/P	193 L/P	1077 L/P	47 L/P	274 L/P
CC(C)C[C@H](NC(=O)CN)C(=O)N[C@@H](CC(C)C)C(=O)N[C@@H](Cc1c[nH]cn1)C(=O)N[C@@H](CC(C)C)C(=O)N[C@@H](CC(C)C)C(=O)N[C@@H](CCCCN)C(=O)N[C@@H](CC(C)C)C(=O)N[C@@H](CC(C)C)C(=O)N[C@@H](CC(C)C)C(=O)N[C@@H](CCCCN)C(=O)N[C@@H](C)C(=O)N[C@@H](C)C(=O)NCC(=O)N[C@@H](Cc1c[nH]c2ccccc12)C(N)=O [HKK]	12.23 ± 0.11 µM	0.18 L/P	9.5 ± 0.99 µM	2600 ± 420 nM	3.4 ± 0.71 µM	0.14 L/P	106 L/P	657 L/P	106 L/P	90 L/P
CC(C)C[C@H](NC(=O)CN)C(=O)N[C@@H](CC(C)C)C(=O)N[C@@H](CCCCN)C(=O)N[C@@H](CC(C)C)C(=O)N[C@@H](CC(C)C)C(=O)N[C@@H](CCC(=O)O)C(=O)N[C@@H](CC(C)C)C(=O)N[C@@H](CC(C)C)C(=O)N[C@@H](CC(C)C)C(=O)N[C@@H](Cc1c[nH]cn1)C(=O)N[C@@H](C)C(=O)N[C@@H](C)C(=O)NCC(=O)N[C@@H](Cc1c[nH]c2ccccc12)C(N)=O [KEH]	49.2 ± 5.3 µM	1.00 L/P	5.65 ± 0.07 µM	2350 ± 70 nM	3.3 ± 0.42 µM	0.50 L/P	188 L/P	995 L/P	68 L/P	286 L/P
CC(C)C[C@H](NC(=O)CN)C(=O)N[C@@H](CC(C)C)C(=O)N[C@@H](CCCCN)C(=O)N[C@@H](CC(C)C)C(=O)N[C@@H](CC(C)C)C(=O)N[C@@H](CCC(=O)O)C(=O)N[C@@H](CC(C)C)C(=O)N[C@@H](CC(C)C)C(=O)N[C@@H](CC(C)C)C(=O)N[C@@H](CCCCN)C(=O)N[C@@H](C)C(=O)N[C@@H](C)C(=O)NCC(=O)N[C@@H](Cc1c[nH]c2ccccc12)C(N)=O [KEK]	8.15 ± 0.49 µM	0.47 L/P	3.2 ± 0.14 µM	1350 ± 70 nM	1.6 ± 0.14 µM	0.50 L/P	110 L/P	1173 L/P	126 L/P	438 L/P
CC(C)C[C@H](NC(=O)CN)C(=O)N[C@@H](CC(C)C)C(=O)N[C@@H](CCCCN)C(=O)N[C@@H](CC(C)C)C(=O)N[C@@H](CC(C)C)C(=O)N[C@@H](Cc1c[nH]cn1)C(=O)N[C@@H](CC(C)C)C(=O)N[C@@H](CC(C)C)C(=O)N[C@@H](CC(C)C)C(=O)N[C@@H](CCC(=O)O)C(=O)N[C@@H](C)C(=O)N[C@@H](C)C(=O)NCC(=O)N[C@@H](Cc1c[nH]c2ccccc12)C(N)=O [KHE]	53 ± 2.83 µM	0.88 L/P	26 ± 2.83 µM	2920 ± 170 nM	3.7 ± 0.14 µM	0.71 L/P	183 L/P	981 L/P	156 L/P	188 L/P
